According to article PMC5177629, “Selective Estrogen Receptor Modulators: Cannabinoid Receptor Inverse Agonists with Differential CB1 and CB2 Selectivity” (Frontiers in Pharmacology, 2016):
pIC50, pKi: −log10 of the molar value. Read-outs that look alike come from different tables or passages of the source. Marks after values point to notes of the source that are not given here.

Columns and labels:
[1] = molecular target: T1, human cannabinoid type-2 receptors (hCB2) (Homo sapiens, UniProt P34972); assay: [35S]GTPγS binding, CHO-hCB2 membranes; format: biochemical; conditions: for IMAX, GTPγS Binding (% Basal) CHO-hCB2: maximal reduction of basal G-protein activity; for pIC50: reduction of basal G-protein activity, read-out: IC50, GTPγS Binding CHO-hCB2
T1 construct: expressed in transfected cells; host or cells: CHO cells (CHO-hCB2), membranes or intact cells
Method: (§1) In short, pellets were thawed on ice, combined in a 40 ml glass Dounce homogenizer and homogenized in 20 ml of cold buffer (50 mM HEPES at pH 7.4, 3 mM MgCl2, and 1 mM EGTA) using 10 strokes. Homogenates were then centrifuged at 40,000 × g for 10 min at 4°C. After discarding the supernatant, pellets were homogenized and centrifuged twice more. Final pellets were re-suspended in ice-cold 50 mM HEPES, pH 7.4, aliquoted and stored at -80°C for future use. Protein concentration was determined the same day, prior to freezing, using BCA^TM Protein Assay (Thermo Fisher Scientific, Waltham, MA, USA).
(§2) Non-specific binding was defined by radioactivity remaining in the presence of 10 μM of non-radioactive GTPγS. All reactions were incubated for 30 min at 30°C, terminated by filtration through Whatman GF/B glass fiber filters (Brandel, Inc.) and followed by four 4 ml washes of ice cold filtration buffer (50 mM HEPES, pH 7.4) containing 0.1% bovine serum albumin. Filter punches of individual samples were placed in scintillation vials containing 4 mls of ScintiverseTM BD cocktail scintillation fluid (Fisher Scientific, Pittsburg, PA, USA). Final counts were determined using liquid scintillation spectrophotometry (Tri Carb 2100 TR Liquid Scintillation Analyzer, Packard Instrument Company, Meriden, CT, USA) after overnight incubation.
(§3) Statistical analyses were conducted by utilizing GraphPad Prism v6.0g (GraphPad Software, Inc.; San Diego, CA, USA). IC50 values from competition receptor binding curves were derived by non-linear regression. […] Non-linear regression analysis of concentration-effect curves was also used to determine potency (ED50 or IC50) and efficacy (Emax or Imax) for modulation of GTPγS and adenylyl cyclase activity, respectively. All IC50, EC50, Ki, and Kb values were converted to pEC50, pIC50, pKi, and pKb values in order to permit use of parametric statistical analyses. For all experiments comparing three or more values, an one-way ANOVA was employed, followed by Dunnett’s or Tukey’s post hoc tests. For comparisons of two values, an unpaired t-test was utilized. To determine significant radioligand displacement or modulation of G-protein activity compared to basal levels, a one-sample t-test was employed.
(§4) CBRs are coupled to Gi/Go type G-proteins. Therefore, binding of agonists to CBRs leads to G-protein activation, antagonists produce no effect, and inverse agonists reduce basal G-protein activity produced by constitutively active receptors. SERMs were screened by examining the ability of a single receptor saturating concentration (10 μM) to modulate G-protein activity in membranes prepared from CHO-hCB1 and CHO-hCB2 cells. G-protein activation was quantified using employing [^35S]GTPγS, a non-hydrolyzable analog of GTP, that irreversibly binds to the G-proteins when activated.

[2] = molecular target: T2, human cannabinoid type-1 receptors (hCB1) (Homo sapiens, UniProt P21554); assay: Competition receptor binding with [3H]CP-55,940, CHO-hCB1 membranes
T2 construct: host or cells: CHO cells (CHO-hCB1), membranes or intact cells
Method: as §1
The final volume of each sample was 1 ml, containing 50 mM Tris-HCl buffer (pH 7.4), 0.05% bovine serum albumin, 5 mM MgCl2, increasing concentrations of non-radioactive competing SERM ligands, and either 100 μg of CHO-hCB1 or 50 μg of CHO-hCB2 membrane homogenates. […] Each sample condition was performed in triplicate and allowed to reach equilibrium at room temperature for 90 min. Reactions were terminated by rapid vacuum filtration through Whatman GF/B glass fiber filters (Brandel, Inc.), followed by four 4 ml washes of ice-cold filtration buffer (50 mM Tris at pH 7.4 and 0.05% BSA). Filter punches of individual samples were placed in scintillation vials containing 4 mls of ScintiverseTM BD cocktail scintillation fluid (Fisher Scientific, Pittsburg, PA, USA). Final counts were determined using liquid scintillation spectrophotometry (Tri Carb 2100 TR Liquid Scintillation Analyzer, Packard Instrument Company, Meriden, CT, USA) after overnight incubation.
as §3
For initial comparison of potential SERM binding to CBRs, 14 commercially available compounds from 5 structurally distinct classes (Figure 1) were subjected to a radioligand binding screen (Figure 2).

[3] = molecular target: T2, human cannabinoid type-1 receptors (hCB1); assay: [35S]GTPγS binding, CHO-hCB1 membranes; format: biochemical; conditions: for IMAX, GTPγS Binding (% Basal) CHO-hCB1: maximal reduction of basal G-protein activity
Method: as §1, §2, §3, §4

[4] = molecular target: T2, human cannabinoid type-1 receptors (hCB1); assay: Antagonism of CP-55,940 inhibition of adenylyl cyclase, intact CHO-hCB1 cells; format: cell-based; conditions: for IMAX of CP-55,940 after pre-incubation with the drug: CHO-hCB1 cells, pre-incubation 30 min: OSP, NAF, BAZ 10 μM, RAL 2 μM, AM-281 1 μM
Method: Briefly, cells cultured between passages 4 and 15 were seeded into 24-well plates at a concentration of 6.5 million cells per plate and incubated overnight in a humidified incubator maintained at 37°C and 5% CO2. Growth media was removed the next day and replaced with media containing […] [^3H]adenine, 0.9g/L NaCl, and 0.5 mM isobutyl-methyl-xanthine (IBMX) for 2–3 h. Radioactive media was then removed and each well treated with 0.5 ml of varying concentrations of SERM compounds in a Krebs-Ringer-HEPES solution (10 mM HEPES, 110 mM NaCl, 25 mM Glucose, 55 mM Sucrose, 5 mM KCl, 1 mM MgCl2, 1.8 mM CaCl2, pH 7.4) containing 0.5 mM IBMX and 10 μM forskolin. Plates were then floated in a 37°C water bath for 15 min before reactions were terminated by addition of 50 μL of 2.2 N HCl to each well.
Reactions were then terminated by adding 50 μL of 2.2 N HCl to each well. [^3H]cAMP was isolated using alumina column chromatography and radioactivity quantified following addition of 10 mls of scintiverseTM BD cocktail scintillation fluid (Fisher Scientific, Pittsburg, PA, USA) by liquid scintillation spectrophotometry (Tri Carb 2100 TR Liquid Scintillation Analyzer, Packard Instrument Company, Meriden, CT, USA).
as §3
IC50 and Kb values were converted to pIC50 and pKb values (pIC50 = -Log[IC50] or pKb = -Log[Kb], respectively) to allow use of parametric statistics for comparison.

[5] = molecular target: T3, human mu opioid receptors (hMOR) (Homo sapiens, UniProt P35372); assay: [35S]GTPγS binding, CHO-hMOR membranes (control devoid of CBRs); format: biochemical; conditions: 10 μM
T3 construct: expressed in transfected cells; host or cells: CHO cells (CHO-hMOR), membranes or intact cells
Method: as §2

[6] = molecular target: T4, human mu opioid receptors (CHO-hMOR cells) (Homo sapiens, UniProt P35372); assay: Adenylyl cyclase assay, CHO-hMOR cells (control not expressing hCB2Rs); format: cell-based; conditions: 10 μM
T4 construct: expressed in transfected cells; host or cells: CHO cells (CHO-hMOR), membranes or intact cells
T4 sequence (P35372 whole entry): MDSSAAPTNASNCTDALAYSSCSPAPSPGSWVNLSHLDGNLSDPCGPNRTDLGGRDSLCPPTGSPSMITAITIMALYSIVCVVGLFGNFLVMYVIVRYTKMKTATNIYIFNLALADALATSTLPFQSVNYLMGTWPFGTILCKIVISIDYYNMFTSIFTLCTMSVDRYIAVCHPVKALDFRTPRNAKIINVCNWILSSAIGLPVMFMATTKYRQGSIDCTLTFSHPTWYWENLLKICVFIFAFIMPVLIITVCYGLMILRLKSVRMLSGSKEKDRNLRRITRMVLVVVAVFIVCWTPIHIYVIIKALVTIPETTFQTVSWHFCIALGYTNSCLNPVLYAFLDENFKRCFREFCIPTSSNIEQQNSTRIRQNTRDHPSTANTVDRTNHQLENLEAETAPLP

T1 sequence (P34972 whole entry): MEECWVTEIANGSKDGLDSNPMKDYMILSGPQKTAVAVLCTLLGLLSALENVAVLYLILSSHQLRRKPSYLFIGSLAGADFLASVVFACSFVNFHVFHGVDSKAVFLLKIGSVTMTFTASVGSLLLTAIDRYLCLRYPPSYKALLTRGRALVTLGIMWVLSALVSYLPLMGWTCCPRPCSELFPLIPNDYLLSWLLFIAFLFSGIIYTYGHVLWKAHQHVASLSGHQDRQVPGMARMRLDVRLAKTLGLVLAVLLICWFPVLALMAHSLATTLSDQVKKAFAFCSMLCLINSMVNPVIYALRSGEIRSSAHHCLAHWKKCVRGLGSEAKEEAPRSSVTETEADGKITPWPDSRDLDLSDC
T2 sequence (P21554 whole entry): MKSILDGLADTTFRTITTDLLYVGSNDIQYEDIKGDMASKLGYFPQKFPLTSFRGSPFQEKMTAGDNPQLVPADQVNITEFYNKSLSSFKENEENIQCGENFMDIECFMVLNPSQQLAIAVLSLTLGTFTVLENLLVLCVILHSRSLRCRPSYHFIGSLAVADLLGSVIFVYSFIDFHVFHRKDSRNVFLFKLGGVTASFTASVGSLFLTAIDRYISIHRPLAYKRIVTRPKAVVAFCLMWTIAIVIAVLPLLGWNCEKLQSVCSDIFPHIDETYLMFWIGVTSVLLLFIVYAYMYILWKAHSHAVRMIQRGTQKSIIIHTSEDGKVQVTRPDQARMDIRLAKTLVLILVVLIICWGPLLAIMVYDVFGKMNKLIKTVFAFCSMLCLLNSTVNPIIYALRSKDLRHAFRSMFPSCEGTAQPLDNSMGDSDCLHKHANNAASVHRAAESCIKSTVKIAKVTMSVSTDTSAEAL
T3 sequence (P35372 whole entry): as the sequence (P35372 whole entry) above

Row | pKi ([2]; CHO-hCB1 membranes, Cheng-Prusoff from IC50) | Selectivity (CB1/CB2) ([2]; ratio of Ki hCB1 / Ki hCB2) | pIC50 ([3]; reduction of basal G-protein activity, CHO-hCB1 membranes, read-out: IC50, GTPγS Binding CHO-hCB1) | IC50 ([1]; CHO-hCB2 membranes, mean ± SEM, read-out: pIC50, GTPγS Binding CHO-hCB2 (converted)) [nM] | Kb ([4]; read-out: Kb (antagonist dissociation constant), CHO-hCB1) [nM] | Structure (SMILES) | IMAX, GTPγS Binding (% Basal) CHO-hCB2 [1] | pIC50 ([1]; CHO-hCB2 membranes) | IMAX, GTPγS Binding (% Basal) CHO-hCB1 [3] | IMAX of CP-55,940 after pre-incubation with the drug [4] [%] | pKi [2] | displacement of [3H]CP-55,940 from hCB1Rs ([2]; single 1 μM concentration, 0.2 nM [3H]CP-55,940, CHO-hCB1) | pIC50 [3] | reduction of basal G-protein activity, hCB1Rs ([3]; CHO-hCB1 membranes, 10 μM) [%] | reduction of G-protein activity, hCB2Rs ([1]; CHO-hCB2 membranes, 10 μM) [%] | decrease in basal G-protein activity, CHO-hMOR [5] [%] | Kb [4] [nM] | effect on basal cAMP levels, CHO-hMOR cells [6]
1 | – | – | – | – | – | O=C(c1ccc(OCCN2CCCCC2)cc1)c1c(-c2ccc(O)cc2)sc2cc(O)ccc12 [RAL, raloxifene] | 34.3 ± 2.2^b,∗∗ % | 7.06 | – | – | – | – | – | – | – | – | – | –
2 | 6.02 | 0.74 | 6.28 | 344 | 1160 | COc1ccc2c(c1)CCC(c1ccccc1)=C2c1ccc(OCCN2CCCC2)cc1 [NAF, nafoxidine] | 38.7 ± 1.2^a,b,∗∗ % | – | 31.7 ± 1.5^a % | 38.3 ± 1.7 | – | – | – | – | – | – | – | –
3 | – | – | – | – | – | OCCOc1ccc(/C(=C(/CCCl)c2ccccc2)c2ccccc2)cc1 [OSP, ospemifene] | 39.7 ± 2.4^a,∗∗ % | 6.25 | 30.3 ± 2.0^a % | 43.8 ± 2.7 | 6.12 | approximately 50% | 6.77 | ~30 | ~30 | 11 | 173 | –
4 | – | – | – | – | – | Cc1c(-c2ccc(O)cc2)n(Cc2ccc(OCCN3CCCCCC3)cc2)c2ccc(O)cc12 [BAZ, bazedoxifene] | 34.0 ± 1.0^b,∗ % | 7.15 | – | – | – | – | – | – | – | – | – | only slightly altered
